Results from patent US12643887B2, “Heterocyclic derivatives with cardiomyocyte proliferation activity for treatment of heart diseases” (Tongji University, priority 2019, dated 2026).

Experiments:
Type in all cases: biochemical
human CLK1 = biological target: T1, human CLK1 (Homo sapiens, UniProt P49759); test: CLK1 enzyme assay (ADP-Glo); conditions: ADP-Glo, ATP 10 μM; read-out: CLK1 IC50
T1 construct: Recombinant human CLK1 (129-end); GST (N); purchased SignalChem C57-11G; host or cells: Sf9 insect cells
How it was run: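 GST-tagged CLK1 (129-end, Sf9-expressed) at 16 nM was preincubated with compound 30 min at 25 °C in 40 mM Tris pH 7.5, 20 mM MgCl2, 0.1 mg/ml BSA, 50 μM DTT. Reaction with 2 μM substrate and 10 μM ATP ran 60 min at 25 °C. ADP-Glo luminescence gave IC50 by four-parameter fit.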

human DYRK1A = biological target: T2, human DYRK1A (Homo sapiens, UniProt Q13627); test: DYRK1A enzyme assay (ADP-Glo); conditions: ADP-Glo, ATP 60 μM; read-out: DYRK1A IC50
T2 construct: Recombinant full-length DYRK1A (expressed in E. Coli cells with an N-terminal GST tag); GST (N); purchased SignalChem D09-10G; host or cells: E. coli
How it was run: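 GST-tagged full-length human DYRK1A (E. coli, 3 nM) preincubated 30 min at 25 °C with compound in 40 mM Tris pH 7.5, 20 mM MgCl2, 0.1 mg/ml BSA, 50 μM DTT, then reacted 60 min with 20 μM DYRKtide and 60 μM ATP. ADP-Glo luminescence; IC50 by four-parameter logistic fit.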

human HIPK1 = biological target: T3, human HIPK1 (Homo sapiens, UniProt Q86Z02); test: HIPK1 enzyme assay (ADP-Glo); conditions: ADP-Glo, ATP 5 μM; read-out: HIPK1 IC50
T3 construct: Recombinant human HIPK1 (156-555); GST (N); purchased SignalChem H03-11G; host or cells: Sf9 insect cells
How it was run: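 Recombinant GST-tagged HIPK1 (156-555, Sf9), 4 nM, preincubated 30 min at 25° C with compound in Tris pH 7.5/MgCl2/BSA/DTT, then reacted 90 min with 0.05 mg/ml MBP and 5 μM ATP. ADP formed read by ADP-Glo luminescence; IC50 from four-parameter logistic fit of % inhibition versus Max/Min controls.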

T3 sequence (Q86Z02 156-555): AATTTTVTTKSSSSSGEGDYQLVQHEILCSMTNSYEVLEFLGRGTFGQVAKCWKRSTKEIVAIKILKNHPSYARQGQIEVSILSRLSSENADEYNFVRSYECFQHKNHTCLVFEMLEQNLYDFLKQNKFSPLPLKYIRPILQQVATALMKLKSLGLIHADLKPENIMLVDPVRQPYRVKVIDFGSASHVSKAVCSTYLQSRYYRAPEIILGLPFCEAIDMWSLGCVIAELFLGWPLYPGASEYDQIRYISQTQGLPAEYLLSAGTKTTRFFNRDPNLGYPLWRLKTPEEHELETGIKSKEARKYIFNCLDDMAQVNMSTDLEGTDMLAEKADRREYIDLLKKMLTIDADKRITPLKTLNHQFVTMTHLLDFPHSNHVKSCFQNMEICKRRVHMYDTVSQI
T1 sequence (P49759 129-484 limits assumed): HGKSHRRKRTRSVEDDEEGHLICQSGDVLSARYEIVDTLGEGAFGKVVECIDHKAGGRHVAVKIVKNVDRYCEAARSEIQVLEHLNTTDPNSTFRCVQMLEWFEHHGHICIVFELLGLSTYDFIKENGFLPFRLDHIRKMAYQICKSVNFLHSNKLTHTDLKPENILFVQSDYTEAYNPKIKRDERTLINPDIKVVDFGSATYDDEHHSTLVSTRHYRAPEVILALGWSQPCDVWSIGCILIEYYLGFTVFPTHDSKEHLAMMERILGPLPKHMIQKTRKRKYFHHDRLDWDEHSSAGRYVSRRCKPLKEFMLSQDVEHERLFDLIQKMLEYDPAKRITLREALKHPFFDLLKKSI

SMILES: O=C1NC(Nc2ccccc2)=N/C1=C\c1ccc2ncccc2c1 [Example 53, (Z)-2-(phenylamino)-5-(quinolin-6-ylmethylene)-3,5-dihydro-4H-imidazol-4-one]
- IC50 (human CLK1): < 100 nM
- IC50 (human DYRK1A): < 0.1 µM
- IC50 (human HIPK1): > 10 µM

SMILES: O=C1NC(Nc2ccccc2)=N/C1=C\c1ccc2cn[nH]c2c1 [Example 54, (Z)-5-((1H-indazol-6-yl)methylene)-2-(phenylamino)-3,5-dihydro-4H-imidazol-4-one]
- IC50 (human CLK1): > 10000 nM
- IC50 (human DYRK1A): > 10 µM
- IC50 (human HIPK1): > 10 µM

SMILES: O=C1NC(Nc2ccccc2)=N/C1=C\c1ccc2[nH]ncc2c1 [Example 55, (Z)-5-((1H-indazol-5-yl)methylene)-2-(phenylamino)-3,5-dihydro-4H-imidazol-4-one]
- IC50 (human CLK1): < 100 nM
- IC50 (human DYRK1A): < 0.1 µM
- IC50 (human HIPK1): > 10 µM

SMILES: O=C1NC(Nc2ccccc2)=N/C1=C\c1ccc2nn[nH]c2c1 [Example 56, (Z)-5-((1H-benzo[d][1,2,3]triazol-6-yl)methylene)-2-(phenylamino)-3,5-dihydro-4H-imidazol-4-one]
- IC50 (human CLK1): < 100 nM
- IC50 (human DYRK1A): < 0.1 µM
- IC50 (human HIPK1): > 10 µM

SMILES: O=C1NC(Nc2ccc3ncsc3c2)=N/C1=C\c1ccc2[nH]ccc2c1 [Example 58, (Z)-5-((1H-indol-5-yl)methylene)-2-(benzo[d]thiazol-6-ylamino)-3,5-dihydro-4H-imidazol-4-one]
- IC50 (human CLK1): > 10000 nM
- IC50 (human DYRK1A): > 10 µM
- IC50 (human HIPK1): > 10 µM

SMILES: O=C1NC(Nc2ccc3ncsc3c2)=N/C1=C\c1ccc2occc2c1 [Example 59, (Z)-2-(benzo[d]thiazol-6-ylamino)-5-(benzofuran-5-ylmethylene)-3,5-dihydro-4H-imidazol-4-one]
- IC50 (human CLK1): > 10000 nM
- IC50 (human DYRK1A): > 10 µM
- IC50 (human HIPK1): > 10 µM

SMILES: O=C1NC(Nc2ccc3ncsc3c2)=N/C1=C\c1ccc2cccnc2c1 [Example 60, (Z)-2-(benzo[d]thiazol-6-ylamino)-5-(quinolin-7-ylmethylene)-3,5-dihydro-4H-imidazol-4-one]
- IC50 (human CLK1): > 10000 nM
- IC50 (human DYRK1A): > 10 µM
- IC50 (human HIPK1): > 10 µM

SMILES: Cn1cnc2cc(NC3=N/C(=C\c4ccc5ncsc5c4)C(=O)N3)ccc21 [Example 61, (Z)-5-(benzo[d]thiazol-6-ylmethylene)-2-((1-methyl-1H-benzo[d]imidazol-5-yl)amino)-3,5-dihydro-4H-imidazol-4-one]
- IC50 (human CLK1): 100 to 1000 nM
- IC50 (human DYRK1A): < 0.1 µM
- IC50 (human HIPK1): 0.1 to 1 µM

SMILES: O=C1NC(Nc2ccc3ncsc3c2)=N/C1=C\c1ccc2cc[nH]c2c1 [Example 63, (Z)-5-((1H-indol-6-yl)methylene)-2-(benzo[d]thiazol-6-ylamino)-3,5-dihydro-4H-imidazol-4-one]
- IC50 (human CLK1): > 10000 nM
- IC50 (human DYRK1A): > 10 µM
- IC50 (human HIPK1): > 10 µM

SMILES: O=C1NC(Nc2ccc3[nH]ccc3c2)=N/C1=C\c1ccc2ncsc2c1 [Example 69, (Z)-2-((1H-indol-5-yl)amino)-5-(benzo[d]thiazol-6-ylmethylene)-3,5-dihydro-4H-imidazol-4-one]
- IC50 (human CLK1): < 100 nM
- IC50 (human DYRK1A): < 0.1 µM
- IC50 (human HIPK1): 0.1 to 1 µM

SMILES: CN(C1=N/C(=C\c2ccc3c(c2)OCO3)C(=O)N1)c1ccc2ncsc2c1 [Example 70, (Z)-5-(benzo[d][1,3]dioxol-5-ylmethylene)-2-(benzo[d]thiazol-6-yl(methyl)amino)-3,5-dihydro-4H-imidazol-4-one]
- IC50 (human CLK1): < 100 nM
- IC50 (human DYRK1A): > 10 µM
- IC50 (human HIPK1): > 10 µM

SMILES: Cn1cnc2cc(/C=C3\N=C(Nc4ccccc4)NC3=O)ccc21 [Example 71, (Z)-5-((1-methyl-1H-benzo[d]imidazol-5-yl)methylene)-2-(phenylamino)-3,5-dihydro-4H-imidazol-4-one]
- IC50 (human CLK1): > 10000 nM
- IC50 (human DYRK1A): > 10 µM
- IC50 (human HIPK1): > 10 µM

SMILES: O=C1NC(Nc2ccccc2)=N/C1=C\c1ccc2sccc2c1 [Example 72, (Z)-5-(benzo[b]thiophen-5-ylmethylene)-2-(phenylamino)-3,5-dihydro-4H-imidazol-4-one]
- IC50 (human CLK1): > 10000 nM
- IC50 (human DYRK1A): > 10 µM
- IC50 (human HIPK1): > 10 µM

SMILES: O=C1NC(Nc2ccccc2)=N/C1=C\c1ccc2cc[nH]c2c1 [Example 73, (Z)-5-((1H-indol-6-yl)methylene)-2-(phenylamino)-3,5-dihydro-4H-imidazol-4-one]
- IC50 (human CLK1): > 10000 nM
- IC50 (human DYRK1A): > 10 µM
- IC50 (human HIPK1): > 10 µM

SMILES: O=C1NC(Nc2ccc3ncsc3c2)=N/C1=C\c1ccc2c(c1)OCCO2 [Example 74, (Z)-2-(benzo[d]thiazol-6-ylamino)-5-((2,3-dihydrobenzo[b][1,4]dioxin-6-yl)methylene)-3,5-dihydro-4H-imidazol-4-one]
- IC50 (human CLK1): > 10000 nM
- IC50 (human DYRK1A): > 10 µM
- IC50 (human HIPK1): > 10 µM

SMILES: Cn1cnc2ccc(/C=C3\N=C(Nc4ccc5ncsc5c4)NC3=O)cc21 [Example 75, (Z)-2-(benzo[d]thiazol-6-ylamino)-5-((1-methyl-1H-benzo[d]imidazol-6-yl)methylene)-3,5-dihydro-4H-imidazol-4-one]
- IC50 (human CLK1): < 100 nM
- IC50 (human DYRK1A): < 0.1 µM
- IC50 (human HIPK1): < 0.1 µM

SMILES: O=C1NC(Nc2ccc3ncsc3c2)=N/C1=C\c1ccc2nc[nH]c2c1 [Example 76, (Z)-5-((1H-benzo[d]imidazol-6-yl)methylene)-2-(benzo[d]thiazol-6-ylamino)-3,5-dihydro-4H-imidazol-4-one]
- IC50 (human CLK1): < 100 nM
- IC50 (human DYRK1A): < 0.1 µM
- IC50 (human HIPK1): 0.1 to 1 µM

SMILES: Cn1ncc2cc(/C=C3\N=C(Nc4ccccc4)NC3=O)ccc21 [Example 77, (Z)-5-((1-methyl-1H-indazol-5-yl)methylene)-2-(phenylamino)-3,5-dihydro-4H-imidazol-4-one]
- IC50 (human CLK1): 100 to 1000 nM
- IC50 (human DYRK1A): < 0.1 µM
- IC50 (human HIPK1): > 10 µM

SMILES: Cn1ncc2cc(/C=C3\N=C(Nc4ccc5ncsc5c4)NC3=O)ccc21 [Example 78, (Z)-2-(benzo[d]thiazol-6-ylamino)-5-((1-methyl-1H-indazol-5-yl)methylene)-3,5-dihydro-4H-imidazol-4-one]
- IC50 (human CLK1): > 10000 nM
- IC50 (human DYRK1A): > 10 µM
- IC50 (human HIPK1): > 10 µM

SMILES: Cn1ncc2ccc(/C=C3\N=C(Nc4ccccc4)NC3=O)cc21 [Example 79, 5-((1-methyl-1H-indazol-6-yl)methylene)-2-(phenylamino)-3,5-dihydro-4H-imidazol-4-one]
- IC50 (human CLK1): > 10000 nM
- IC50 (human DYRK1A): > 10 µM
- IC50 (human HIPK1): > 10 µM

SMILES: Cn1ncc2ccc(/C=C3\N=C(Nc4ccc5ncsc5c4)NC3=O)cc21 [Example 80, (Z)-2-(benzo[d]thiazol-6-ylamino)-5-((1-methyl-1H-indazol-6-yl)methylene)-3,5-dihydro-4H-imidazol-4-one]
- IC50 (human CLK1): > 10000 nM
- IC50 (human DYRK1A): > 10 µM
- IC50 (human HIPK1): > 10 µM

SMILES: O=C1NC(Nc2ccc3c(c2)OCCO3)=N/C1=C\c1ccc2ncsc2c1 [Example 81, (Z)-5-(benzo[d]thiazol-6-ylmethylene)-2-((2,3-dihydrobenzo[b][1,4]dioxin-6-yl)amino)-3,5-dihydro-4H-imidazol-4-one]
- IC50 (human CLK1): < 100 nM
- IC50 (human DYRK1A): < 0.1 µM
- IC50 (human HIPK1): 0.1 to 1 µM

SMILES: CN(C1=N/C(=C\c2ccc3ncsc3c2)C(=O)N1)c1ccc2ncsc2c1 [Example 83, (Z)-2-(benzo[d]thiazol-6-yl(methyl)amino)-5-(benzo[d]thiazol-6-ylmethylene)-3,5-dihydro-4H-imidazol-4-one]
- IC50 (human CLK1): < 100 nM
- IC50 (human DYRK1A): 0.1 to 1 µM
- IC50 (human HIPK1): > 10 µM

SMILES: CN(C1=N/C(=C\c2ccc3c(c2)OCCO3)C(=O)N1)c1ccc2ncsc2c1 [Example 84, (Z)-2-(benzo[d]thiazol-6-yl(methyl)amino)-5-((2,3-dihydrobenzo[b][1,4]dioxin-6-yl)methylene)-3,5-dihydro-4H-imidazol-4-one]
- IC50 (human CLK1): 100 to 1000 nM
- IC50 (human DYRK1A): 0.1 to 1 µM
- IC50 (human HIPK1): > 10 µM
